According to patent publication US6573262B2, “Composition and antiviral activity of substituted indoleoxoacetic piperazine derivatives” (priority 2000, dated 2003):

Test system: HIV-1 single-round infectious reporter virus
Experiment: microbe, parasite or virus in culture
Format: cell-based
Details: for EC50: Human immunodeficiency virus 1, HeLa-CD4/CCR5, 72 h, read-out: EC50 Group from Table 1; for inhibition at 10 µM: Human immunodeficiency virus 1, HeLa-CD4/CCR5, read-out: % Inhibition @ 10 uM

SMILES | EC50 | inhibition at 10 µM
CCN(CC)CCNC(=O)c1cccc2c(C(=O)C(=O)N3CCN(C(=O)c4ccccc4)C[C@H]3C)c[nH]c12 [Example 66] | < 1000 nM | 98%
CCNC(=O)c1cccc2c(C(=O)C(=O)N3CCN(C(=O)c4ccccc4)C[C@H]3C)c[nH]c12 [Example 67] | < 1000 nM | > 98%
C[C@@H]1CN(C(=O)c2ccccc2)CCN1C(=O)C(=O)c1c[nH]c2c(C(=O)N3CCN(Cc4ccccc4)CC3)cccc12 [Example 68] | < 1000 nM | > 98%
O=C(C(=O)N1CCN(C(=O)c2ccccc2)CC1)c1c[nH]c2c(C(=O)N3CCN(C(=O)c4ccccc4)CC3)ccc(F)c12 [Example 69] | < 1000 nM | > 98%
O=C(O)Cn1nnc(-c2ccc(F)c3c(C(=O)C(=O)N4CCN(C(=O)c5ccccc5)CC4)c[nH]c23)n1 [Example 70] | < 1000 nM | > 98%
CNC(=O)Cn1nnc(-c2ccc(F)c3c(C(=O)C(=O)N4CCN(C(=O)c5ccccc5)CC4)c[nH]c23)n1 [Example 71] | < 1000 nM | > 98%
COC(CNC(=O)c1ccc(F)c2c(C(=O)C(=O)N3CCN(C(=O)c4ccccc4)CC3)c[nH]c12)OC [Example 72] | < 1000 nM | > 98%
O=C(C(=O)N1CCN(C(=O)c2ccccc2)CC1)c1c[nH]c2c(-c3ncco3)ccc(F)c12 [Example 73] | < 1000 nM | > 98%
N=C(NC1CC1)c1ccc(F)c2c(C(=O)C(=O)N3CCN(C(=O)c4ccccc4)CC3)c[nH]c12 [Example 75] | < 1000 nM | > 98%
O=C(C(=O)N1CCN(C(=O)c2ccccc2)CC1)c1c[nH]c2c(-c3nc4ccccc4[nH]3)ccc(F)c12 [Example 76] | < 1000 nM | > 98%
N=C(NN)c1ccc(F)c2c(C(=O)C(=O)N3CCN(C(=O)c4ccccc4)CC3)c[nH]c12 [Example 77] | – | > 98%
Cc1n[nH]c(-c2ccc(F)c3c(C(=O)C(=O)N4CCN(C(=O)c5ccccc5)CC4)c[nH]c23)n1 [Example 78] | < 1000 nM | –
O=C(C(=O)N1CCN(C(=O)c2ccccc2)CC1)c1c[nH]c2c(-c3ncon3)ccc(F)c12 [Example 79] | < 1000 nM | > 98%
Cc1nc(-c2ccc(F)c3c(C(=O)C(=O)N4CCN(C(=O)c5ccccc5)CC4)c[nH]c23)no1 [Example 80] | < 1000 nM | > 98%
O=C(C(=O)N1CCN(C(=O)c2ccccc2)CC1)c1c[nH]c2c(-c3noc(C(Cl)(Cl)Cl)n3)ccc(F)c12 [Example 81] | < 1000 nM | –
O=C(C(=O)N1CCN(C(=O)c2ccccc2)CC1)c1c[nH]c2c(-c3noc(NC4CC4)n3)ccc(F)c12 [Example 82] | < 1000 nM | > 98%
Nc1nc(-c2ccc(F)c3c(C(=O)C(=O)N4CCN(C(=O)c5ccccc5)CC4)c[nH]c23)no1 [Example 83] | < 1000 nM | > 98%
O=C(C(=O)N1CCN(C(=O)c2ccccc2)CC1)c1c[nH]c2c(-c3cncn3Cc3ccccc3)ccc(F)c12 [Example 84] | < 1000 nM | –
O=C(C(=O)N1CCN(C(=O)c2ccccc2)CC1)c1c[nH]c2c(-c3cnc[nH]3)ccc(F)c12 [Example 85] | < 1000 nM | –
CCOC(=O)c1cc(-c2ccc(F)c3c(C(=O)C(=O)N4CCN(C(=O)c5ccccc5)CC4)c[nH]c23)[nH]n1 [Example 86] | < 1000 nM | –
CCOC(=O)c1cc(-c2ccc(F)c3c(C(=O)C(=O)N4CCN(C(=O)c5ccccc5)CC4)c[nH]c23)on1 [Example 87] | < 1000 nM | –
O=C(O)c1cc(-c2ccc(F)c3c(C(=O)C(=O)N4CCN(C(=O)c5ccccc5)CC4)c[nH]c23)[nH]n1 [Example 88] | < 1000 nM | –

SMILES | EC50 | inhibition at 10 µM
CNC(=O)c1cc(-c2ccc(F)c3c(C(=O)C(=O)N4CCN(C(=O)c5ccccc5)CC4)c[nH]c23)[nH]n1 [Example 89] | < 1000 nM | –
O=C(O)c1cc(-c2ccc(F)c3c(C(=O)C(=O)N4CCN(C(=O)c5ccccc5)CC4)c[nH]c23)on1 [Example 90] | < 1000 nM | –
CC(C)(C)OC(=O)NNC(=O)c1ccc(F)c2c(C(=O)C(=O)N3CCN(C(=O)c4ccccc4)CC3)c[nH]c12 [Example 91] | < 1000 nM | –
NNC(=O)c1ccc(F)c2c(C(=O)C(=O)N3CCN(C(=O)c4ccccc4)CC3)c[nH]c12 [Example 92] | < 1000 nM | –
O=C(C(=O)N1CCN(C(=O)c2ccccc2)CC1)c1c[nH]c2c(-c3nnco3)ccc(F)c12 [Example 93] | < 1000 nM | –
CC(=O)Nc1nc(-c2ccc(F)c3c(C(=O)C(=O)N4CCN(C(=O)c5ccccc5)CC4)c[nH]c23)no1 [Example 96] | < 1000 nM | –
O=C(C(=O)N1CCN(C(=O)c2ccccc2)CC1)c1c[nH]c2c(-c3noc(CCl)n3)ccc(F)c12 [Example 97] | < 1000 nM | –
COC(=O)Cc1nc(-c2ccc(F)c3c(C(=O)C(=O)N4CCN(C(=O)c5ccccc5)CC4)c[nH]c23)no1 [Example 98] | < 1000 nM | –
CNC(=O)c1nc(-c2ccc(F)c3c(C(=O)C(=O)N4CCN(C(=O)c5ccccc5)CC4)c[nH]c23)no1 [Example 102] | < 1000 nM | –
NC(=O)c1nc(-c2ccc(F)c3c(C(=O)C(=O)N4CCN(C(=O)c5ccccc5)CC4)c[nH]c23)no1 [Example 103] | < 1000 nM | –
NC(=O)Cn1nnc(-c2ccc(F)c3c(C(=O)C(=O)N4CCN(C(=O)c5ccccc5)CC4)c[nH]c23)n1 [Example 104] | < 1000 nM | –
CC(=O)OCn1nnc(-c2ccc(F)c3c(C(=O)C(=O)N4CCN(C(=O)c5ccccc5)CC4)c[nH]c23)n1 [Example 108] | < 1000 nM | –
O=C(C(=O)N1CCN(C(=O)c2ccccc2)CC1)c1c[nH]c2c(-c3nc[nH]n3)ccc(F)c12 [Example 111] | < 1000 nM | –
O=C(C(=O)N1CCN(C(=O)c2ccccc2)CC1)c1c[nH]c2c(-c3nnn(CCO)n3)ccc(F)c12 [Example 112] | < 1000 nM | –
O=C(C(=O)N1CCN(C(=O)c2ccccc2)CC1)c1c[nH]c2c(-c3nnn(CCN4C(=O)c5ccccc5C4=O)n3)ccc(F)c12 [Example 113] | < 1000 nM | –
CCN(CC)CCn1nnc(-c2ccc(F)c3c(C(=O)C(=O)N4CCN(C(=O)c5ccccc5)CC4)c[nH]c23)n1 [Example 114] | < 1000 nM | –
N#CCCCn1nnc(-c2ccc(F)c3c(C(=O)C(=O)N4CCN(C(=O)c5ccccc5)CC4)c[nH]c23)n1 [Example 115] | < 1000 nM | –
O=C(C(=O)N1CCN(C(=O)c2ccccc2)CC1)c1c[nH]c2c(-n3cccn3)ccc(F)c12 [Example 116] | < 1000 nM | –
O=C(C(=O)N1CCN(C(=O)c2ccccc2)CC1)c1c[nH]c2c(-n3ccnc3)ccc(F)c12 [Example 117] | < 1000 nM | –
O=C(C(=O)N1CCN(C(=O)c2ccccc2)CC1)c1c[nH]c2c(-n3cncn3)ccc(F)c12 [Example 118] | < 1000 nM | –
COc1ccc(C(C)=O)c2[nH]cc(C(=O)C(=O)N3CCN(C(=O)c4ccccc4)CC3)c12 [Example 119] | < 1000 nM | –
CCN(CC)C(=O)COC(=O)c1cc(-c2ccc(F)c3c(C(=O)C(=O)N4CCN(C(=O)c5ccccc5)CC4)c[nH]c23)n[nH]1 [Example 120] | < 1000 nM | –

SMILES | EC50 | inhibition at 10 µM
CC(C)(C)OC(=O)N1CCN(C(=O)C(=O)c2c[nH]c3c(/C(N)=N/O)ccc(F)c23)CC1 [Example 121] | < 1000 nM | –
CC(C)(C)OC(=O)N1CCN(C(=O)C(=O)c2c[nH]c3c(-c4ncon4)ccc(F)c23)CC1 [Example 122] | < 1000 nM | –
CC1CN(C(=O)C(=O)c2c[nH]c3c(-c4ncon4)ccc(F)c23)CCN1C(=O)c1ccccc1 (stereo not shown) [Example 123] | < 1000 nM | –
COc1ccc(/C=N/O)c2[nH]cc(C(=O)C(=O)N3CCN(C(=O)c4ccccc4)CC3)c12 [Example 124] | < 1000 nM | –
CNC(=O)c1ccc(OC)c2c(C(=O)C(=O)N3CCN(C(=O)c4ccccc4)CC3)c[nH]c12 [Example 125] | < 1000 nM | –
COc1ccc(-c2ncon2)c2[nH]cc(C(=O)C(=O)N3CCN(C(=O)c4ccccc4)CC3)c12 [Example 126] | < 1000 nM | –
CC(C)(C)OC(=O)N1C=NNC(c2ccc(F)c3c(C(=O)C(=O)N4CCN(C(=O)c5ccccc5)CC4)c[nH]c23)=N1 [Example 132] | < 1000 nM | –
CC(C)(C)NC(=O)NNC(=O)c1ccc(F)c2c(C(=O)C(=O)N3CCN(C(=O)c4ccccc4)CC3)c[nH]c12 [Example 133] | < 1000 nM | –
CC(C)NC(=O)NNC(=O)c1ccc(F)c2c(C(=O)C(=O)N3CCN(C(=O)c4ccccc4)CC3)c[nH]c12 [Example 134] | < 1000 nM | –
CCCNC(=O)NNC(=O)c1ccc(F)c2c(C(=O)C(=O)N3CCN(C(=O)c4ccccc4)CC3)c[nH]c12 [Example 135] | < 1000 nM | –
COC(=O)CNc1nc(-c2ccc(F)c3c(C(=O)C(=O)N4CCN(C(=O)c5ccccc5)CC4)c[nH]c23)no1 [Example 140] | < 1000 nM | –
COC(=O)Cn1cnc(-c2ccc(F)c3c(C(=O)C(=O)N4CCN(C(=O)c5ccccc5)CC4)c[nH]c23)n1 [Example 144] | < 1000 nM | –
CNC(=O)Cn1cnc(-c2ccc(F)c3c(C(=O)C(=O)N4CCN(C(=O)c5ccccc5)CC4)c[nH]c23)n1 [Example 145] | < 1000 nM | –
COC(=O)c1c[nH]c(-c2ccc(F)c3c(C(=O)C(=O)N4CCN(C(=O)c5ccccc5)CC4)c[nH]c23)n1 [Example 146] | < 1000 nM | –
CNC(=O)c1c[nH]c(-c2ccc(F)c3c(C(=O)C(=O)N4CCN(C(=O)c5ccccc5)CC4)c[nH]c23)n1 [Example 147] | < 1000 nM | –
COc1ccc(C(N)=O)c2[nH]cc(C(=O)C(=O)N3CCN(C(=O)c4ccccc4)CC3)c12 [Example 148] | < 1000 nM | –
O=C(C(=O)N1CCN(C(=O)c2ccccn2)CC1)c1c[nH]c2c(-c3nnn(C(F)F)n3)ccc(F)c12 [Example 149] | < 1000 nM | –
O=C(C(=O)N1CCN(C(=O)c2cccc([N+](=O)[O-])c2)CC1)c1c[nH]c2c(-c3ncon3)ccc(F)c12 [Example 150A] | < 1000 nM | –
O=C(C(=O)N1CCN(C(=O)c2c(F)cccc2F)CC1)c1c[nH]c2c(-c3ncon3)ccc(F)c12 [Example 150B] | < 1000 nM | –
O=C(C(=O)N1CCN(C(=O)c2ccccc2F)CC1)c1c[nH]c2c(-c3ncon3)ccc(F)c12 [Example 150C] | < 1000 nM | –
Nc1cccc(C(=O)N2CCN(C(=O)C(=O)c3c[nH]c4c(-c5ncon5)ccc(F)c34)CC2)c1 [Example 151] | < 1000 nM | –
